Experimental data as given in patent publication US10101331B2, “Methods of evaluating patients using E-cadherin or vimentin” (AGIOS PHARMACEUTICALS, INC, priority 2012, dated 2018).

Tested on: NCI-H358 cell line
Experiment: TGFβ treatment of NCI-H358, western blot phenotype
Format: cell-based
Protocol: FIG. 4A depicts a western blot analysis of the non-small cell lung cancer cell line NCI-H358 for protein levels of E-cadherin, vimentin, PC ([…]), GLS (phosphate activated glutaminase), and actin (control).
In order to better understand the contribution of mesenchymal versus epithelial phenotype to GLS dependence, the NCI-H358 cell line was treated with TGFβ and the phenotype assayed.

With “TGFβ: TGFβ used to induce EMT in the NCI-H358 cell line” the “phenotype after TGFβ treatment” value (E-cadherin/vimentin expression) was “shift to a mesenchymal phenotype” and the “increase in GAC protein levels in the mesenchymal variant” value (TGFβ induced EMT) was 2 fold.
